From ChEMBL document CHEMBL3885861, “Open TG-GATES”

Organism: Rattus norvegicus
Assay: Open TG-GATES - Regimen: Daily Repeat
Type: toxicity, organism-based, Sprague-Dawley
Set-up: regimen Daily Repeat, gender Male, age 6 weeks
Settings: in vivo, po, route gavage; for APTT / Bas / Eos / Fbg / Hb / Ht / Lym / MCHC / MCV / Mono / Neu / PT / Plat / RBC / Ret / WBC: tissue Blood; for KIDNEY_L / KIDNEY_R / KIDNEY_TOTAL: tissue Kidney; for LIVER: tissue Liver; for ALP / ALT / AST / CRE / DBIL / GLC / IP / K / LDH / Na / PL / RALB / TBIL / TC / TG / TP / gamma-GTP: tissue Plasma
[1] = 300 mg/kg, 72 h, dose level Middle, time 3 day
[2] = 300 mg/kg, […], dose level Middle, time 7 day
[3] = 300 mg/kg, […], dose level Middle, time 14 day
[4] = 300 mg/kg, […], dose level Middle, time 28 day
[5] = 1000 mg/kg, 72 h, dose level High, time 3 day
[6] = 1000 mg/kg, […], dose level High, time 7 day
[7] = 1000 mg/kg, […], dose level High, time 14 day
[8] = 1000 mg/kg, […], dose level High, time 28 day

C#C[C@]1(O)CC[C@H]2[C@@H]3CCC4=Cc5oncc5C[C@]4(C)[C@H]3CC[C@@]21C [DANAZOL]
TERMINAL_BW [1]: 238.4 g
APTT [1]: 22.7 s
Bas [1]: 0%
Eos [1]: 1%
Fbg [1]: 355.8 mg/dL
Hb [1]: 13.5 g/dL
Ht [1]: 40.3%
Lym [1]: 80%
MCHC [1]: 33.4%
MCV [1]: 62.4 fL
Mono [1]: 2.4%
Neu [1]: 15.8%
PT [1]: 16.5 s
Plat [1]: 115.8 x10_4/uL
RBC [1]: 645.6 x10_4/ul
Ret [1]: 6.6%
WBC [1]: 87.1 x10_2/uL
KIDNEY_L [1]: 1.1 g
KIDNEY_R [1]: 1.1 g
KIDNEY_TOTAL [1]: 2.2 g
LIVER [1]: 12.4 g
ALP [1]: 1638.6 IU/L
ALT [1]: 45.2 IU/L
AST [1]: 65.8 IU/L
CRE [1]: 0.2 mg/dL
DBIL [1]: 0 mg/dL
GLC [1]: 180.2 mg/dL
IP [1]: 7.9 mg/dL
K [1]: 4.5 meq/L
LDH [1]: 169.6 IU/L
Na [1]: 141.6 meq/L
PL [1]: 129.6 mg/dL
RALB [1]: 3.1 g/dL
TBIL [1]: 0.004 mg/dL
TC [1]: 50.2 mg/dL
TG [1]: 172.2 mg/dL
TP [1]: 5.7 g/dL
gamma-GTP [1]: 2 IU/L
TERMINAL_BW [2]: 263.9 g
TERMINAL_BW [3]: 303.4 g
TERMINAL_BW [4]: 343.4 g
APTT [2]: 25.7 s
Bas [2]: 0%
Eos [2]: 0.8%
Fbg [2]: 360 mg/dL
Hb [2]: 13.9 g/dL
Ht [2]: 41.1%
Lym [2]: 81.8%
MCHC [2]: 33.8%
MCV [2]: 61.8 fL
Mono [2]: 2%
Neu [2]: 14.8%
PT [2]: 16.2 s
Plat [2]: 127.5 x10_4/uL
RBC [2]: 666.4 x10_4/ul
Ret [2]: 5.3%
WBC [2]: 104.2 x10_2/uL
APTT [3]: 26.4 s
Bas [3]: 0%
Eos [3]: 0.8%
Fbg [3]: 334.2 mg/dL
Hb [3]: 14.6 g/dL
Ht [3]: 41.2%
Lym [3]: 85.2%
MCHC [3]: 35.4%
MCV [3]: 58.8 fL
Mono [3]: 2.4%
Neu [3]: 10.8%
PT [3]: 17.3 s
Plat [3]: 124.6 x10_4/uL
RBC [3]: 701.4 x10_4/ul
Ret [3]: 2.8%
WBC [3]: 113.8 x10_2/uL
APTT [4]: 26.1 s
Bas [4]: 0%
Eos [4]: 0.6%
Fbg [4]: 310.8 mg/dL
Hb [4]: 14.5 g/dL
Ht [4]: 42.2%
Lym [4]: 84.2%
MCHC [4]: 34.5%
MCV [4]: 54.1 fL
Mono [4]: 1.8%
Neu [4]: 12.4%
PT [4]: 17.9 s
Plat [4]: 108.2 x10_4/uL
RBC [4]: 779.4 x10_4/ul
Ret [4]: 2%
WBC [4]: 79.9 x10_2/uL
KIDNEY_L [2]: 1.2 g
KIDNEY_R [2]: 1.2 g
KIDNEY_TOTAL [2]: 2.4 g
KIDNEY_L [3]: 1.3 g
KIDNEY_R [3]: 1.3 g
KIDNEY_TOTAL [3]: 2.6 g
KIDNEY_L [4]: 1.4 g
KIDNEY_R [4]: 1.3 g
KIDNEY_TOTAL [4]: 2.7 g
LIVER [2]: 13.6 g
LIVER [3]: 14.9 g
LIVER [4]: 14.9 g
ALP [2]: 1469 IU/L
ALT [2]: 42.6 IU/L
AST [2]: 64 IU/L
CRE [2]: 0.2 mg/dL
DBIL [2]: 0 mg/dL
GLC [2]: 181.6 mg/dL
IP [2]: 6.5 mg/dL
K [2]: 4.3 meq/L
LDH [2]: 134.6 IU/L
Na [2]: 142.2 meq/L
PL [2]: 132.2 mg/dL
RALB [2]: 3.1 g/dL
TBIL [2]: 0.002 mg/dL
TC [2]: 49.4 mg/dL
TG [2]: 210.2 mg/dL
TP [2]: 5.8 g/dL
gamma-GTP [2]: 1.8 IU/L
ALP [3]: 1443.4 IU/L
ALT [3]: 35.6 IU/L
AST [3]: 58 IU/L
CRE [3]: 0.2 mg/dL
DBIL [3]: 0 mg/dL
GLC [3]: 170 mg/dL
IP [3]: 6.8 mg/dL
K [3]: 4.3 meq/L
LDH [3]: 134.8 IU/L
Na [3]: 141.8 meq/L
PL [3]: 115 mg/dL
RALB [3]: 3.1 g/dL
TBIL [3]: 0 mg/dL
TC [3]: 35.6 mg/dL
TG [3]: 240.6 mg/dL
TP [3]: 6 g/dL
gamma-GTP [3]: 2.4 IU/L
ALP [4]: 1201.6 IU/L
ALT [4]: 35.6 IU/L
AST [4]: 57.6 IU/L
CRE [4]: 0.2 mg/dL
DBIL [4]: 0 mg/dL
GLC [4]: 178 mg/dL
IP [4]: 5.8 mg/dL
K [4]: 4 meq/L
LDH [4]: 121.6 IU/L
Na [4]: 142.2 meq/L
PL [4]: 130.4 mg/dL
RALB [4]: 3.1 g/dL
TBIL [4]: 0.002 mg/dL
TC [4]: 41.4 mg/dL
TG [4]: 280.2 mg/dL
TP [4]: 6.2 g/dL
gamma-GTP [4]: 2.8 IU/L
TERMINAL_BW [5]: 232.8 g
APTT [5]: 23.9 s
Bas [5]: 0%
Eos [5]: 1%
Fbg [5]: 355.8 mg/dL
Hb [5]: 13.1 g/dL
Ht [5]: 39.4%
Lym [5]: 83%
MCHC [5]: 33.3%
MCV [5]: 63 fL
Mono [5]: 3%
Neu [5]: 12.2%
PT [5]: 16.6 s
Plat [5]: 122.2 x10_4/uL
RBC [5]: 626 x10_4/ul
Ret [5]: 5.3%
WBC [5]: 100.4 x10_2/uL
KIDNEY_L [5]: 1.1 g
KIDNEY_R [5]: 1.1 g
KIDNEY_TOTAL [5]: 2.2 g
LIVER [5]: 13.1 g
ALP [5]: 1658.2 IU/L
ALT [5]: 39.2 IU/L
AST [5]: 60.6 IU/L
CRE [5]: 0.2 mg/dL
DBIL [5]: 0 mg/dL
GLC [5]: 173.4 mg/dL
IP [5]: 7.6 mg/dL
K [5]: 4.5 meq/L
LDH [5]: 153.4 IU/L
Na [5]: 141 meq/L
PL [5]: 116.2 mg/dL
RALB [5]: 3.1 g/dL
TBIL [5]: 0 mg/dL
TC [5]: 47.2 mg/dL
TG [5]: 132.6 mg/dL
TP [5]: 5.8 g/dL
gamma-GTP [5]: 2 IU/L
TERMINAL_BW [6]: 261.4 g
TERMINAL_BW [7]: 289.1 g
TERMINAL_BW [8]: 372.5 g
APTT [6]: 25.7 s
Bas [6]: 0%
Eos [6]: 0.8%
Fbg [6]: 351.6 mg/dL
Hb [6]: 14 g/dL
Ht [6]: 41.5%
Lym [6]: 86.4%
MCHC [6]: 33.8%
MCV [6]: 60 fL
Mono [6]: 1.6%
Neu [6]: 10.4%
PT [6]: 16.7 s
Plat [6]: 143.9 x10_4/uL
RBC [6]: 693.2 x10_4/ul
Ret [6]: 4.9%
WBC [6]: 103.6 x10_2/uL
APTT [7]: 28.9 s
Bas [7]: 0%
Eos [7]: 0.8%
Fbg [7]: 345.6 mg/dL
Hb [7]: 14.8 g/dL
Ht [7]: 42.1%
Lym [7]: 86.8%
MCHC [7]: 35.2%
MCV [7]: 57.3 fL
Mono [7]: 2.2%
Neu [7]: 9.6%
PT [7]: 17.1 s
Plat [7]: 119 x10_4/uL
RBC [7]: 734.6 x10_4/ul
Ret [7]: 2.4%
WBC [7]: 81.2 x10_2/uL
APTT [8]: 27.7 s
Bas [8]: 0%
Eos [8]: 1.2%
Fbg [8]: 320.6 mg/dL
Hb [8]: 14.3 g/dL
Ht [8]: 41.9%
Lym [8]: 79.4%
MCHC [8]: 34.1%
MCV [8]: 56.1 fL
Mono [8]: 3%
Neu [8]: 15.8%
PT [8]: 18.2 s
Plat [8]: 112.3 x10_4/uL
RBC [8]: 749 x10_4/ul
Ret [8]: 2.2%
WBC [8]: 69.9 x10_2/uL
KIDNEY_L [6]: 1.1 g
KIDNEY_R [6]: 1.2 g
KIDNEY_TOTAL [6]: 2.3 g
KIDNEY_L [7]: 1.3 g
KIDNEY_R [7]: 1.4 g
KIDNEY_TOTAL [7]: 2.7 g
KIDNEY_L [8]: 1.5 g
KIDNEY_R [8]: 1.5 g
KIDNEY_TOTAL [8]: 3 g
LIVER [6]: 13.2 g
LIVER [7]: 15 g
LIVER [8]: 18 g
ALP [6]: 1593 IU/L
ALT [6]: 36.4 IU/L
AST [6]: 61.2 IU/L
CRE [6]: 0.1 mg/dL
DBIL [6]: 0 mg/dL
GLC [6]: 184 mg/dL
IP [6]: 7 mg/dL
K [6]: 4.3 meq/L
LDH [6]: 136.6 IU/L
Na [6]: 142.4 meq/L
PL [6]: 121 mg/dL
RALB [6]: 3.2 g/dL
TBIL [6]: 0 mg/dL
TC [6]: 44.2 mg/dL
TG [6]: 200.6 mg/dL
TP [6]: 5.8 g/dL
gamma-GTP [6]: 2.4 IU/L
ALP [7]: 1541.2 IU/L
ALT [7]: 37.6 IU/L
AST [7]: 58.6 IU/L
CRE [7]: 0.2 mg/dL
DBIL [7]: 0 mg/dL
GLC [7]: 174.8 mg/dL
IP [7]: 7.2 mg/dL
K [7]: 4.3 meq/L
LDH [7]: 133.8 IU/L
Na [7]: 142.2 meq/L
PL [7]: 124.2 mg/dL
RALB [7]: 3.1 g/dL
TBIL [7]: 0 mg/dL
TC [7]: 38.6 mg/dL
TG [7]: 255.8 mg/dL
TP [7]: 6.2 g/dL
gamma-GTP [7]: 2.8 IU/L
ALP [8]: 1028.8 IU/L
ALT [8]: 37.6 IU/L
AST [8]: 55.8 IU/L
CRE [8]: 0.2 mg/dL
DBIL [8]: 0 mg/dL
GLC [8]: 177.8 mg/dL
IP [8]: 6.6 mg/dL
K [8]: 4.2 meq/L
LDH [8]: 122.6 IU/L
Na [8]: 141.6 meq/L
PL [8]: 133.6 mg/dL
RALB [8]: 3.2 g/dL
TBIL [8]: 0 mg/dL
TC [8]: 41.4 mg/dL
TG [8]: 275.4 mg/dL
TP [8]: 6.4 g/dL
gamma-GTP [8]: 3.6 IU/L
